Key:
Type in all cases: cell-based
[1] = target: human CXCR3A (Homo sapiens (Human), UniProt P49682); test: FLIPR assay (CXCL10-induced calcium signal); settings: CHO-K1 cells expressing human CXCR3A coupled to Galpha(16); CXCL10 agonist 20 nM; mean values
Description: (§1) In the case where IC50 values have been determined several times for the same compound, mean values are given.

[2] = target: CXCR3 (Homo sapiens (Human), UniProt P49682); test: Receptor internalization assay in human whole blood (CXCR3 surface expression on CD4 positive cells, CXCL10); settings: final CXCL10 9 nM, 30 min at 37° C., mean values
Protocol: Diluted compounds are then mixed with an equal volume of CXCL10 (Peprotech) diluted in PBS. Anticoagulated venous human whole blood is added to the mixture, which is then incubated in a CO2 incubator at 37° C. to allow for ligand mediated receptor internalization (final CXCL10 concentration is 9 nM). After 30 min, the blood is mixed with fluorescently labeled CXCR3 and CD4 specific antibodies (Becton Dickinson) and incubated on ice for 10 minutes. Samples are then mixed with BD FACS Lysing Solution (Becton Dickinson) in order to eliminate red blood cells. After washing the cells with PBS containing 0.5% BSA, the samples are then analyzed in a flow cytometer (FACS Canto II, Becton Dickinson). For data analysis using FACSDiva software (Becton Dickinson), the mean fluorescence corresponding to CXCR3 cell surface expression was determined on CD4 positive cells. The program GraphPad Prism or similar software is used to fit the data to a single site dose response curve and to calculate IC50 values.
as §1

[3] = target: hERG K channel (Homo sapiens (Human), UniProt Q12809); test: hERG Q-Patch assay; settings: CHO cells expressing hERG, K+ tail current 3 min after application, mean of two or three experiments
Protocol: Compounds are evaluated for block of the hERG K channel using CHO cells stably expressing the hERG gene (accession number U04270, bSys, Witterswil, Switzerland) and the QPatch robotic platform (Sophion, Ballerup, Denmark) in single-cell mode at room temperature. Cells are grown in culture flasks at 37° C. in 5% CO2, in culture medium (Ham's F-12 Nutrient Mixture, Invitrogen 21765-029) supplemented with 9% (v/v) fetal calf serum, 0.9% Penicillin/Streptomycin (10,000 U/mL, Invitrogen 15140148), 100 μg/mL Hygromycin B (Invitrogen 10687010). When the cells are ˜80% confluent (every 2-3 days), they are either split for further culture or used for electrophysiology. For further culture, cells are detached with 0.25% Trypsin EDTA solution (Invitrogen 25200-056) and a fraction of the cells (10-30%) is reseeded in culture medium. For electrophysiology, on the experimental day, cells are detached with 0.25% Trypsin EDTA solution and all cells are suspended in suspension medium (293 SFM II, Invitrogen 11686-029) supplemented with 20 mM HEPES and 0.04 mg/mL Trypsin inhibitor. Cells are kept in suspension medium at 32-35° C. in the QPatch robot until use, at which time aliquots are transferred to the extracellular solution (in mM: NaCl 150; KCl 4; CaCl2 1.2; MgCl2 1; HEPES 10; pH 7.4 with NaOH) containing 0.3% v/v DMSO and applied to the test plates. K^+ currents are measured with the patch-voltage-clamp technique in the whole-cell configuration with the internal solution (in mM: KCl, 140; NaCl, 10; MgCl2, 1; HEPES, 10: EGTA, 5; pH=7.2 with KOH). Currents are low-pass filtered using the internal Bessel filter of the QPatch robot with a cut-off frequency of 2 kHz and are digitized at 10 kHz. K^+ tail currents are produced from a holding voltage of −80 mV by a 500-ms depolarization to +20 mV followed by a 500-ms repolarization to −40 mV; tail current amplitudes are measured at the end of the repolarization to −40 mV. The pulse pattern is repeated every 10 sec during the experiment, baseline K^+ current is measured after 3 min in extracellular solution, test-solution containing compound is then applied, and K^+ current in presence of compound is measured 3 minutes after application to the cells. The respective test-solution is prepared by (1) dissolving the test-compound in pure DMSO, (2) diluting this DMSO solution in extracellular solution, and (3) adding further DMSO, such that the final test-solution has a concentration of either 300 nM or 3000 nM of the test-compound and contains 0.3% v/v DMSO. Compound effects are quantified as % block by dividing the current in presence of compound by the baseline current; two or three experiments are performed for each compound and the final value represents the mean of the results of each experiment.

Chain of hERG K channel (Q12809 whole entry): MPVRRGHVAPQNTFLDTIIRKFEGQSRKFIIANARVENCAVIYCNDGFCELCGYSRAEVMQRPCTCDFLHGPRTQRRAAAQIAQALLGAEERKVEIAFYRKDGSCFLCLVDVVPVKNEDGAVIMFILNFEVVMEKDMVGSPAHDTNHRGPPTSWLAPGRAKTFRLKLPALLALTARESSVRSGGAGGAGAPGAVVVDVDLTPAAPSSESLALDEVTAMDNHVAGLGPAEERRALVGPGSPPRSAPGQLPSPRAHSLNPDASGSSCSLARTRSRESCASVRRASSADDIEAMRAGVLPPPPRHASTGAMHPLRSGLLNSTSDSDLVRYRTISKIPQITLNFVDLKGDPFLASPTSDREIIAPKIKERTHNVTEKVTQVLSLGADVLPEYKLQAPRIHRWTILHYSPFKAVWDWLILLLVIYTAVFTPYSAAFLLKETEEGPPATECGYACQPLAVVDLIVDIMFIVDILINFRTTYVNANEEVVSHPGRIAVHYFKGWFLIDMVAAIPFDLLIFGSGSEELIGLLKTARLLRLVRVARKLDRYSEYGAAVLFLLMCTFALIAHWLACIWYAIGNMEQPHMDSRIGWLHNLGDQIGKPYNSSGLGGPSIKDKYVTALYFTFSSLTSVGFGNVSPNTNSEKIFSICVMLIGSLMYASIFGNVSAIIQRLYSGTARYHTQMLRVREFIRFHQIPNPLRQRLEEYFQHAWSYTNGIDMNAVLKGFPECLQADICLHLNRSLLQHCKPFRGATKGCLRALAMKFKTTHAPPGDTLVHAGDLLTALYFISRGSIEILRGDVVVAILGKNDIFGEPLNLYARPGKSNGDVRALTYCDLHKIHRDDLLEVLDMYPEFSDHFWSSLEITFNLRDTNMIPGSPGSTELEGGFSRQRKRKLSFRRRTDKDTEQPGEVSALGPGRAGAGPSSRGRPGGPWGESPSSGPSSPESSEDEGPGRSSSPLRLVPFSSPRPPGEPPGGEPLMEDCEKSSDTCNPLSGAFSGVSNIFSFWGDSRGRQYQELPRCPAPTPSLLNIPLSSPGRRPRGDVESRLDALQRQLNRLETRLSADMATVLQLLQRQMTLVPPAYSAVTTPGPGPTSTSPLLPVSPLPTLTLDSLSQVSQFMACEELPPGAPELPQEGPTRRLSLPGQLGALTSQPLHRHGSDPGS
Chain of CXCR3 (P49682 whole entry): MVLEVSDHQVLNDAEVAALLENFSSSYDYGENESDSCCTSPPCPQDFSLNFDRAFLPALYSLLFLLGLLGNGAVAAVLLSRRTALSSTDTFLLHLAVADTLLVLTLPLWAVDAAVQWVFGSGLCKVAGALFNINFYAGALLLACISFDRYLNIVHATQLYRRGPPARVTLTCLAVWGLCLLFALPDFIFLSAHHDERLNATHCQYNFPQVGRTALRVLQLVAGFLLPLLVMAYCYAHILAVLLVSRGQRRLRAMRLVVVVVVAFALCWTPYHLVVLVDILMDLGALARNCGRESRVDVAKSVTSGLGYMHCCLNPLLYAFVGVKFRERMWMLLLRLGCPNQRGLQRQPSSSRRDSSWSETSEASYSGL
Chain of human CXCR3A (P49682 whole entry): as above

Structure (SMILES) | IC50 [1] | IC50 [2] | % block ([3]; concentration 300 nM) | % block ([3]; concentration 3000 nM)
Cc1ncnn1CC(=O)N1CCN(c2sc(C(F)(F)F)nc2-c2cnc(C(F)(F)F)nc2)C[C@H]1CCO [Example 36, 1-{(R)-2-(2-Hydroxy-ethyl)-4-[2-trifluoromethyl-4-(2-trifluoromethyl-pyrimidin-5-yl)-thiazol-5-yl]-piperazin-1-yl}-2-(5-methyl-[1,2,4]triazol-1-yl)-ethanone] | 0.008 µM | 0.451 µM | 10% | 19%
CCc1ncn(CC(=O)N2CCN(c3sc(C(F)(F)F)nc3-c3cnc(C(F)(F)F)nc3)C[C@H]2CCO)n1 [Example 32, 2-(3-Ethyl-[1,2,4]triazol-1-yl)-1-{(R)-2-(2-hydroxy-ethyl)-4-[2-trifluoromethyl-4-(2-trifluoromethyl-pyrimidin-5-yl)-thiazol-5-yl]-piperazin-1-yl}-ethanone] | 0.0026 µM | 0.0933 µM | 0% | 19%
CC(C)c1ncn(CC(=O)N2CCN(c3sc(C(F)(F)F)nc3-c3cnc(C(F)(F)F)nc3)C[C@@H]2CO)n1 [Example 11, 1-{(R)-2-Hydroxymethyl-4-[2-trifluoromethyl-4-(2-trifluoromethyl-pyrimidin-5-yl)-thiazol-5-yl]-piperazin-1-yl}-2-(3-isopropyl-[1,2,4]triazol-1-yl)-ethanone] | 0.0034 µM | 0.339 µM | 5% | 11%
CCc1ncnn1CC(=O)N1CCN(c2sc(C(F)(F)F)nc2-c2cnc(C(F)(F)F)nc2)C[C@H]1CCO [Example 33, 2-(5-Ethyl-[1,2,4]triazol-1-yl)-1-{(R)-2-(2-hydroxy-ethyl)-4-[2-trifluoromethyl-4-(2-trifluoromethyl-pyrimidin-5-yl)-thiazol-5-yl]-piperazin-1-yl}-ethanone] | 0.027 µM | 0.652 µM | −5% | 6%
CC(C)c1ncn(CC(=O)N2CCN(c3sc(C(F)(F)F)nc3-c3ccc(C(F)(F)F)nc3)C[C@@H]2CO)n1 [Example 10, 1-{(R)-2-Hydroxymethyl-4-[2-trifluoromethyl-4-(6-trifluoromethyl-pyridin-3-yl)-thiazol-5-yl]-piperazin-1-yl}-2-(3-isopropyl-[1,2,4]triazol-1-yl)-ethanone] | 0.0011 µM | 0.961 µM | 2% | 12%
CCOc1ncc(-c2nc(C(F)(F)F)sc2N2CCN(C(=O)Cn3nc(C)nc3C)[C@H](CO)C2)cn1 [Example 7, 2-(3,5-Dimethyl-[1,2,4]triazol-1-yl)-1-{(S)-4-[4-(2-ethoxy-pyrimidin-5-yl)-2-trifluoromethyl-thiazol-5-yl]-2-hydroxymethyl-piperazin-1-yl}-ethanone] | 0.0031 µM | 2.27 µM | 24% | 45%
O=C(Cn1cnc(C(F)(F)F)n1)N1CCN(c2sc(C(F)(F)F)nc2-c2cnc(C(F)(F)F)nc2)C[C@H]1CO [Example 5, 1-{(S)-2-Hydroxymethyl-4-[2-trifluoromethyl-4-(2-trifluoromethyl-pyrimidin-5-yl)-thiazol-5-yl]-piperazin-1-yl}-2-(3-trifluoromethyl-[1,2,4]triazol-1-yl)-ethanone] | 0.004 µM | 0.328 µM | −2% | 7%
CC(C)(C)c1ncn(CC(=O)N2CCN(c3sc(C(F)(F)F)nc3-c3cnc(C(F)(F)F)nc3)C[C@H]2CO)n1 [Example 1, 2-(3-tert-Butyl-[1,2,4]triazol-1-yl)-1-{(S)-2-hydroxymethyl-4-[2-trifluoromethyl-4-(2-trifluoromethyl-pyrimidin-5-yl)-thiazol-5-yl]-piperazin-1-yl}-ethanone] | 0.0067 µM | 0.415 µM | 2% | 12%
CC(C)(C)c1ncn(CC(=O)N2CCN(c3sc(C(F)(F)F)nc3-c3cnc(C(F)(F)F)nc3)C[C@H]2CCO)n1 [Example 30, 2-(3-tert-Butyl-[1,2,4]triazol-1-yl)-1-{(R)-2-(2-hydroxy-ethyl)-4-[2-trifluoromethyl-4-(2-trifluoromethyl-pyrimidin-5-yl)-thiazol-5-yl]-piperazin-1-yl}-ethanone] | 0.0044 µM | 0.17 µM | −2% | 25%
CCc1ccn(CC(=O)N2CCN(c3sc(C(F)(F)F)nc3-c3cnc(C(F)(F)F)nc3)C[C@H]2CCO)n1 [Example 40, 2-(3-Ethyl-pyrazol-1-yl)-1-{(R)-2-(2-hydroxy-ethyl)-4-[2-trifluoromethyl-4-(2-trifluoromethyl-pyrimidin-5-yl)-thiazol-5-yl]-piperazin-1-yl}-ethanone] | 0.0016 µM | 0.0327 µM | 5% | 47%
O=C(Cn1ccc(C2CC2)n1)N1CCN(c2sc(C(F)(F)F)nc2-c2cnc(C(F)(F)F)nc2)C[C@H]1CO [Example 44, 2-(3-Cyclopropyl-pyrazol-1-yl)-1-{(S)-2-hydroxymethyl-4-[2-trifluoromethyl-4-(2-trifluoromethyl-pyrimidin-5-yl)-thiazol-5-yl]-piperazin-1-yl}-ethanone] | 0.00038 µM | 0.076 µM | 5% | 34%
O=C(Cn1ccc(C2CC2)n1)N1CCN(c2sc(C(F)(F)F)nc2-c2cnc(C(F)(F)F)nc2)C[C@H]1CCO [Example 41, 2-(3-Cyclopropyl-pyrazol-1-yl)-1-{(R)-2-(2-hydroxy-ethyl)-4-[2-trifluoromethyl-4-(2-trifluoromethyl-pyrimidin-5-yl)-thiazol-5-yl]-piperazin-1-yl}-ethanone] | 0.00045 µM | 0.0302 µM | 12% | 60%
O=C(Cn1cnc(C2CC2)n1)N1CCN(c2sc(C(F)(F)F)nc2-c2cnc(C(F)(F)F)nc2)C[C@H]1CCO [Example 31, 2-(3-Cyclopropyl-[1,2,4]triazol-1-yl)-1-{(R)-2-(2-hydroxy-ethyl)-4-[2-trifluoromethyl-4-(2-trifluoromethyl-pyrimidin-5-yl)-thiazol-5-yl]-piperazin-1-yl}-ethanone] | 0.0044 µM | 0.0738 µM | 2% | 23%
CC(=O)c1ncn(CC(=O)N2CCN(c3sc(C(F)(F)F)nc3-c3cnc(C(F)(F)F)nc3)C[C@@H]2CO)n1 [Example 20, 2-(3-Acetyl-[1,2,4]triazol-1-yl)-1-{(R)-2-hydroxymethyl-4-[2-trifluoromethyl-4-(2-trifluoromethyl-pyrimidin-5-yl)-thiazol-5-yl]-piperazin-1-yl}-ethanone] | 0.0064 µM | 2.38 µM | 2% | 3%
COCc1ncn(CC(=O)N2CCN(c3sc(C(F)(F)F)nc3-c3cnc(C(F)(F)F)nc3)C[C@H]2CCO)n1 [Example 37, 1-{(R)-2-(2-Hydroxy-ethyl)-4-[2-trifluoromethyl-4-(2-trifluoromethyl-pyrimidin-5-yl)-thiazol-5-yl]-piperazin-1-yl}-2-(3-methoxymethyl-[1,2,4]triazol-1-yl)-ethanone] | 0.0057 µM | 0.393 µM | 4% | 9%
